# In patent US12116573B2, “Targeting ligands for therapeutic compounds” (Arrowhead Pharmaceuticals, Inc., priority 2016, dated 2024):
# Assay: Solubility of targeting ligand phosphoramidite compounds in oligonucleotide synthesis solvent (Example 5)
# Type: physicochemical
# Conditions: for solubility relative to Structure 103d: solvents for oligonucleotide synthesis
# Description: The compositions were solubilized in dichloromethane (DCM) and dried over sieves.
SMILES,solubility relative to Structure 103d,dissolution under standard conditions (standard concentrations and solvent conditions typical for oligonucleotide synthesis)
"CC(=O)NC1C(OCCOCCNC(=O)CCC(NC(=O)CCC(NC(=O)CCOCCOCCOCCOCCOCCOCCOP(OCCC#N)N(C(C)C)C(C)C)C(=O)NCCOCCOC2OC(COC(C)=O)C(OC(C)=O)C(OC(C)=O)C2NC(C)=O)C(=O)NCCOCCOC2OC(COC(C)=O)C(OC(C)=O)C(OC(C)=O)C2NC(C)=O)OC(COC(C)=O)C(OC(C)=O)C1OC(C)=O (stereo not drawn) [Structure 101d, Tri-NAG-bis-Glu-NH-PEG6 phosphoramidite]",greater solubility,
"CC(=O)NC1C(OCCOCCNC(=O)CCC(NC(=O)CCC(NC(=O)CCOCCOCCOCCOCCOCCOCCOCCOCCOP(OCCC#N)N(C(C)C)C(C)C)C(=O)NCCOCCOC2OC(COC(C)=O)C(OC(C)=O)C(OC(C)=O)C2NC(C)=O)C(=O)NCCOCCOC2OC(COC(C)=O)C(OC(C)=O)C(OC(C)=O)C2NC(C)=O)OC(COC(C)=O)C(OC(C)=O)C1OC(C)=O (stereo not drawn) [Structure 102d, Tri-NAG-bis-Glu-NH-PEG8 Phosphoramidite]",greater solubility,
"CC(=O)NC1C(OCCOCCNC(=O)CCC(NC(=O)CCC(NC(=O)CCOCCOCCOCCOCCOP(OCCC#N)C(C(C)C)C(C)C)C(=O)NCCOCCOC2OC(COC(C)=O)C(OC(C)=O)C(OC(C)=O)C2NC(C)=O)C(=O)NCCOCCOC2OC(COC(C)=O)C(OC(C)=O)C(OC(C)=O)C2NC(C)=O)OC(COC(C)=O)C(OC(C)=O)C1OC(C)=O (stereo not drawn) [Structure 103d, Tri-NAG-bis-Glu-NH-PEG4 phosphoramidite]",,difficult to dissolve
